According to US11034991B2, “Methods to determine KDM1A target engagement and chemoprobes useful therefor” (Oryzon Genomics S.A., priority 2016, dated 2021):
Entries after “also recorded” stand apart in the source; their conditions may differ. Structures can show the parent of a compound that is named as a salt. Values belong to the compound of their own block, whether it stands above or below them.

Columns and labels:
KDM1A in brain = experiment: In vivo KDM1A target engagement, brain of SAMP8 mice
Method: (§1) 8.1. Samples preparation and obtention of protein extracts from cells was performed as described in example 5. Frozen tissues were homogenized with a mortar and pestle chilled on dry ice. Powdered samples were resuspended in lysis buffer and forced through a 18 gauge blunt syringe needle to lyse the cells, proteins were then extracted as described above for cell pellets (example 5.2). Isolation of PBMCs from peripheral blood was also as described in example 5.2.
(§2) 8.2. Assay Protocol and Calculation of TE: same as Described in Example 7.1 and 7.2.
The methods of the invention have also been used to determine KDM1A target engagement in SAMP8 mice (a non-transgenic model for neurodegeneration reminiscent of Alzheimer's disease) which have been treated with the KDM1A inhibitor designated as Compound C. Compound C is the compound with chemical name (−)5-((((trans)-2-(4-(benzyloxy)phenyl)cyclopropyl)amino)methyl)-1,3,4-oxadiazol-2-amine, which is described in WO2012/013728. […] Female SAMP8 mice were treated with Compound C starting at 5 months of age and during 2 months. Mice were randomly distributed in three groups, receiving vehicle or Compound C at 0.11 mg/kg/day or 0.32 mg/kg/day, respectively. […] The dose was calculated according to the animal water consumption average per cage and adjusted weekly. […]

KDM1A in PBMCs = KDM1A in PBMCs (Homo sapiens (Human), UniProt O60341); experiment: KDM1A target engagement in PBMCs of healthy volunteers (Phase I clinical study); type: in vivo; conditions: single oral dose of 1.5 mg, 12 and 72 h post-administration, 6 volunteers
Method: A Phase I clinical study has been performed to characterize the safety, tolerability, pharmacokinetics and pharmacodynamics of Compound C in healthy volunteers. The first stage of this clinical study is a randomized, double-blind, dose escalation study, in which the KDM1A inhibitor was administered as a single oral dose in capsules. Up to five different dose levels were tested in cohorts of 8 volunteers, randomized to receive either Compound C (n=6) or placebo (n=2). As part of the pharmacodynamic evaluations in this clinical study, KDM1A target engagement (TE) was assessed at pre-treatment, and 12 and 72 h after drug administration. Briefly, blood samples (10 mL) were collected in EDTA-K2 tubes from all the treated volunteers (active drug and placebo, n=8 per dose level) and PBMCs pellets obtained by density gradient centrifugation in Leucosep™ tubes and stored at −90° C. until analysis. Only PBMC samples meeting pre-established sample quality control criteria are used for the TE analysis. In particular, samples with signs of hemolysis and/or with traces of red cells are discarded.
KDM1A TE values obtained for each volunteer in the cohort of volunteers corresponding to the single dose of 1.5 mg of Compound C are shown in FIG. 11.

[1] = target: human recombinant KDM1A enzyme (Homo sapiens (Human), UniProt O60341); conditions: read-out: KDM1A IC50 (biochemical assay)
Method: The ability of the chemoprobes to inhibit KDM1A was tested in vitro using the assay described below.
KDM1A inhibition assay: a multistep enzymatic reaction in which the enzyme first produces H2O2 during the demethylation of lysine 4 in a 21 AA H3K4me2 N-terminal peptide. […] After 30 min of incubation at 37° C. Amplex Red reagent and the horseradish peroxidase (HRP) solution were added according to the recommendations of the supplier (Invitrogen) and left to incubate for 5 min at room temperature in the dark. Conversion of the Amplex Red reagent to resorufin, was monitored by fluorescence (λex=540 nm, λem=590 nm) using a microplate reader (Infinite F200 Tecan). Signals were corrected for background and the IC50 value was calculated with GraphPad Prism Software.

Human recombinant MAO-B = Human recombinant MAO-B (Homo sapiens (Human), UniProt P27338); experiment: MAO inhibition (kynuramine fluorescence assay), MAO-B; type: biochemical; conditions: kynuramine at KM, 1 h at 37° C.
Human recombinant MAO-B, sequence (P27338 whole entry): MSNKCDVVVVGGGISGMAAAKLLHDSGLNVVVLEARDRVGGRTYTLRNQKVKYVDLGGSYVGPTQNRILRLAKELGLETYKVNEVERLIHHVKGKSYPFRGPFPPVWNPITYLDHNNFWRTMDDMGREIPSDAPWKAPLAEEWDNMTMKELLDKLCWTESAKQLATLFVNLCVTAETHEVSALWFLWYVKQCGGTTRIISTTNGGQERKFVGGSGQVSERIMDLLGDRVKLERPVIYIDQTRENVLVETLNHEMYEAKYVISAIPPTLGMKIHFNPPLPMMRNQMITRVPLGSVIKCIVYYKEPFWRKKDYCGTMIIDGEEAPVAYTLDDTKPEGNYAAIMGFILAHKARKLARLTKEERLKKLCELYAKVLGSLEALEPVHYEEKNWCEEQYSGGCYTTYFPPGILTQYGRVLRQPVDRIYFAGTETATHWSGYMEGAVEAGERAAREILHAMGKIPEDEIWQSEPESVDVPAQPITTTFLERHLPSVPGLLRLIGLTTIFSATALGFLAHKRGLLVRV
Method: (§3) The target selectivity of the chemoprobes for binding FAD in KDM1A relative to other FAD containing enzymes is evaluated by testing the chemoprobes in different biochemical assays to determine its MAO-A, MAO-B, IL4I1 and SMOX inhibitory activity in vitro. All IC50 values were calculated using Graph Prism Software.
(§4) Human recombinant MAO-A and MAO-B were purchased from Sigma Aldrich (#M7316 and #M7441 respectively). Enzymatic activities and inhibition rate were analyzed in a fluorescence based assay using kynuramine (Sigma Aldrich #K3250) as a substrate. Clorgiline and Deprenyl (Sigma Aldrich #M3778 and #M003) were used as controls for specific inhibition of MAO-A and MAO-B respectively. Compounds were pre-incubated with protein for 15 min on ice in 100 mM Hepes pH 7.5. The enzymatic reaction was initiated by the addition of specific KM Kynuramine and incubated 1 h at 37° C. The reaction was stopped by adding NaOH 2N (v/v). The conversion of kynuramine to 4-hydroxyquinoline was monitored by fluorescence (λex=320 nm, λem=360 nm) using a microplate reader.

Human recombinant MAO-A = Human recombinant MAO-A (Homo sapiens (Human), UniProt P21397); experiment: MAO inhibition (kynuramine fluorescence assay), MAO-A; type: biochemical; conditions: kynuramine at KM, 1 h at 37° C.
Human recombinant MAO-A, sequence (P21397 whole entry): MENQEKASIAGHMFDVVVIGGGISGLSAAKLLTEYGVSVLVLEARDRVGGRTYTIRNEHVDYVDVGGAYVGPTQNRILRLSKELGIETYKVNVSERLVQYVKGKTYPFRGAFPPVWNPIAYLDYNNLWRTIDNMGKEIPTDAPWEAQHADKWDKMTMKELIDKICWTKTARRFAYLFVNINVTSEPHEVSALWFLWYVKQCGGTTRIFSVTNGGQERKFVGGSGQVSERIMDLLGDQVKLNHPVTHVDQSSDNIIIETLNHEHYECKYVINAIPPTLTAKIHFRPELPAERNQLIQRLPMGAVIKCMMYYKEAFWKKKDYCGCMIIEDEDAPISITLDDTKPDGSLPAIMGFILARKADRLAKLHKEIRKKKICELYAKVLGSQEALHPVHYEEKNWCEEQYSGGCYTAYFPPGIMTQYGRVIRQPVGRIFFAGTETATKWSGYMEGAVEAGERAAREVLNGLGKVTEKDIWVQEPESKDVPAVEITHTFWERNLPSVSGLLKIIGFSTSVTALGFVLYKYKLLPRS
Method: as §3, §4

[2] = target: Mouse recombinant SMOX enzyme (Mus musculus (Mouse), UniProt Q99K82); experiment: SMOX inhibition (spermine oxidation, HRP/Amplex red); type: biochemical; conditions: KM spermine, 10 minutes; read-out: mSMOX IC50
Mouse recombinant SMOX enzyme, sequence (Q99K82 whole entry): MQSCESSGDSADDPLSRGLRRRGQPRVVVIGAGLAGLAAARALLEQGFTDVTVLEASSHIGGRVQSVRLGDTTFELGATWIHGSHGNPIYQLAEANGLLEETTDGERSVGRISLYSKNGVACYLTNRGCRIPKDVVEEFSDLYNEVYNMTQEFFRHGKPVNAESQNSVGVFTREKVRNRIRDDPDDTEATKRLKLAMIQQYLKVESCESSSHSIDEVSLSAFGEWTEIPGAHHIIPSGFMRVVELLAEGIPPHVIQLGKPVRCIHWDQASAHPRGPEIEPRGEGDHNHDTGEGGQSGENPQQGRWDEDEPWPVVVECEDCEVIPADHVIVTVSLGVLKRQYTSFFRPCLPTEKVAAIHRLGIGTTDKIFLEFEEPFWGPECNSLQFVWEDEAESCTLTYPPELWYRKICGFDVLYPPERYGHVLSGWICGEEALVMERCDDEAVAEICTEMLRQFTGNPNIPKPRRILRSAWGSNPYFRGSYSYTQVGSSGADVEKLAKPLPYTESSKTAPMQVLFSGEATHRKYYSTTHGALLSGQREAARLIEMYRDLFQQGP
Method: as §3
Mouse recombinant SMOX enzyme was provided by Professor Paolo Mariottini (Rome University). The biochemical activity was measured by its ability to oxidize spermine in a horseradish peroxidase coupled assay using Amplex red as a substrate. The assay buffer for mSMOX reaction was 100 mM Sodium Phosphate pH 8.0. The inhibition by tested compounds was monitored during 10 minutes in the presence of KM spermine.

hIL-4I1 = hIL-4I1 (Homo sapiens (Human), UniProt Q96RQ9); experiment: IL-4I1 inhibition (phenylalanine oxidation, HRP/Amplex red); type: biochemical
hIL-4I1, sequence (Q96RQ9 22-567): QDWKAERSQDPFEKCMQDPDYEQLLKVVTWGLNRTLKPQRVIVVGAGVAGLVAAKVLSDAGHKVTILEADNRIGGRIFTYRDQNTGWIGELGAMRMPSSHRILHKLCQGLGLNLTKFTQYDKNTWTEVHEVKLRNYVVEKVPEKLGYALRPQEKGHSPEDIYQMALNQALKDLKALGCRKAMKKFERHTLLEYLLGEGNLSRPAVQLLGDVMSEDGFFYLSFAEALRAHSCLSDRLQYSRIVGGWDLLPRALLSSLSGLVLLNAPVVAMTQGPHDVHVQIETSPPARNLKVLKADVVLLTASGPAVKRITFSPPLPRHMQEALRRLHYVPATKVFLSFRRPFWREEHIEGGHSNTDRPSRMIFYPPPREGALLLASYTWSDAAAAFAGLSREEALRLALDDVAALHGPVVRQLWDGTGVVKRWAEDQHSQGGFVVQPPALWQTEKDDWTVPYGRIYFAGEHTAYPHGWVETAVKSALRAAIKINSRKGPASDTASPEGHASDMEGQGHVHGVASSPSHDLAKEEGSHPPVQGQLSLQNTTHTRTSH
Method: as §3
Human recombinant IL-411 was purchased from RD Systems (#5684-A0-020). The biochemical activity was measured by its ability to oxidize phenylalanine and produce H2O2 in a horseradish-peroxidase coupled assay using Amplex red as substrate.

KDM1A from THP-1 cells = KDM1A from THP-1 cells (Homo sapiens (Human), UniProt O60341); conditions: pretreatment with 25 nM; chemoprobe example 1.1
Method: (§6) Tubes were incubated for 5 min on ice and briefly sonicated to achieve lysis. The resulting extracts were centrifuged 10 min at 14.000×g at 4° C. Supernatants were collected and quantified by Bradford assay (BIO-RAD; #500-0006) following manufacturer's instructions.
(§7) 350 μg of protein extracts (containing the chemoprobe) was then added and incubated for 30 min at room temperature (RT) using gentle rotation. The chemoprobe-KDM1A complex bound to the streptavidin beads was separated using a magnet and washed 4 times in PBS. After the last wash, samples were resuspended in 25 μL of 3×SDS Sample Buffer and analyzed by western blot. Samples were separated on a 10% Bis-Tris NuPAGE® Novex® Precast gel (Invitrogen; #P0301BOX) following manufacturer's instructions. Gels were transferred onto nitrocellulose membrane (GE Healthcare; #RPN303D) for immunodetection by semi-dry transfer. N-specific binding sites were blocked by incubating membranes in blocking buffer (5% non-fat dry milk in PBS-Tween 0.1%) at RT for 1 h. […] Signal was detected by enhanced chemiluminescence (ECL, Amersham, GE Healthcare; #W9643350) using a GeneGnome HR System (Syngene).

KDM1A in rat PBMCs [3] = target: T1, KDM1A in rat PBMCs (Rattus norvegicus (Rat), UniProt A0A8I6G2K8); experiment: Dynamics of KDM1A target engagement in rat pooled PBMCs; type: in vivo
Method: Obtention of proteins extracts, assay protocol and calculation of TE as described in example 8.1, 7.1 and 7.2 respectively.
PBMCs were obtained pre-dose (before starting the drug administration) and 2, 6, 24 h after the single dose administration, or pre-dose (i.e. 0 h) and 2, 6, 24, 48 and 72 h after the last drug administration in the multiple dose administration. Total and free KDM1A protein levels in PBMCs were assessed using 0.5 ug of total protein extracts. […] The KDM1A target engagement was calculated as described previously (see section 7.2)), where RX corresponds to each time-point analyzed and RREF is the sample corresponding to the pre-dose of rat PBMC.

KDM1A in MV(4;11) cells = KDM1A in MV(4;11) cells (Homo sapiens (Human), UniProt O60341); conditions: 24 h of treatment
Method: Total protein extracts were quantified and 1 ug of total protein was used to perform the target engagement analysis as described above, using the luminescent substrate.

[4] = target: KDM1A from MV(4;11) cells (Homo sapiens (Human), UniProt O60341); conditions: MV(4;11) cells pre-treated with 25 nM; chemoprobes Examples 1.4 and 1.5
Method: as §6, §7

KDM1A in rat PBMCs [5] = target: T1, KDM1A in rat PBMCs; experiment: In vivo KDM1A target engagement, ex vivo rat PBMCs; conditions: pooled rat PBMC, oral gavage 4 consecutive days, 1, 3, 10 and 30 ug/kg/day, two hours after last administration
Method: Peripheral blood mononuclear cells (PBMCs) from rat were isolated from peripheral fresh blood collected in anticoagulant tubes for blood (K2- or K3-EDTA as the preferred anticoagulant tubes) and diluted with an equal volume of PBS, using Ficoll-Paque PLUS reagent (GE Healthcare; #17-1440-02) or Leucosep Tubes (Greiner bio-one; #227288) according to manufacturer's instructions. Cells were stained with tryptan blue and cell number and viability were determined using a Neubauer Chamber in an optical microscope. Pellets of 1·10^6 PBMCs were preserved at −80° C. The same procedure can be used for isolation of PBMCs from other resources such as human or mouse blood. In the case of human samples, preferably Leucosep procedure is used, whereas for mouse PBMCs, Ficoll procedure is preferred.
8.1. Samples preparation and obtention of protein extracts from cells was performed as described in example 5. Frozen tissues were homogenized with a mortar and pestle chilled on dry ice. […]
(§5) Four different doses were used (1, 3, 10 and 30 ug/kg/day). The KDM1A target engagement was calculated as described previously (see example 7), where RX corresponds to each condition analyzed and RREF is the sample corresponding to vehicle (non treated) rat PBMCs.

KDM1A in THP-1 cells = KDM1A in THP-1 cells (Homo sapiens (Human), UniProt O60341); experiment: KDM1A target engagement in cells (chemoprobe luminescent ELISA), THP-1; conditions: THP-1 cells treated for 24 h, 0.25-25 nM
KDM1A in LNCap cells = KDM1A in LNCap cells (Homo sapiens (Human), UniProt O60341); experiment: KDM1A target engagement in cells (chemoprobe luminescent ELISA), LNCap; type: cell-based; conditions: LNCap cells treated for 24 h at 0.1, 1 and 10 nM
Method: Coating was performed at 4° C.

human rKDM1A = human rKDM1A (Homo sapiens (Human), UniProt O60341); experiment: AlphaLISA detection of free KDM1A; type: binding; conditions: pretreatment of the enzyme at 5 uM; chemoprobe Example 1.6 100 nM
Method: The AlphaLISA assay detects the proximity of a first detection agent containing […] latex donor beads containing phthalocyanine that release singlet oxygen after irradiation at […] to a second detection agent containing similar sized acceptor beads containing Europium that emit a narrow peak of light at […] after absorption of singlet oxygen. The AlphaPlex assay allows detection of multiple analytes in the same assay volume and works similarly, but two acceptor beads are used (second and third detection agents) containing respectively Terbium or Samarium and emit light at 545 nM or 645 nM after absorption. Effective singlet oxygen transfer occurs when donor and acceptor beads are separated by a distance of less than 200 nm.
For example, anti-KDM1A antibody (mAb-844) was conjugated to AlphaLISA acceptor beads (Perkin Elmer #6772001) to generate a first detection agent, and anti-KDM1A antibody (mAb-825) was conjugated to AlphaLISA donor beads (Perkin Elmer #6762013) to generate a second detection agent that together form a detection system that can be used to determine total KDM1A levels. […]

KDM1A in rat lung = KDM1A in rat lung (Rattus norvegicus (Rat), UniProt A0A8I6G2K8); experiment: In vivo KDM1A target engagement, ex vivo rat lung; conditions: pooled rat lung, oral gavage 4 consecutive days, 1, 3, 10 and 30 ug/kg/day
Method: as §1, §2, §5

SMILES: Nc1nnc(CN[C@@H]2C[C@H]2c2ccc(OCc3ccccc3)cc2)o1 [Compound C, (−)5-((((trans)-2-(4-(benzyloxy)phenyl)cyclopropyl)amino)methyl)-1,3,4-oxadiazol-2-amine]
- mean % KDM1A target engagement (KDM1A in brain; brain of female SAMP8 mice, 0.11 or 0.32 mg/kg/day in drinking water, 2 months): clear dose-response of KDM1A target engagement
- brain penetration (KDM1A in brain; mouse, in vivo): enters the brain; also recorded: cross the blood-brain barrier
- KDM1A TE (KDM1A in PBMCs): Clear KDM1A target engagement
- IC50 [1]: 0.101 µM

- IC50 (Human recombinant MAO-B): > 100 µM
- IC50 (Human recombinant MAO-A): > 100 µM
- IC50 [2]: 13 µM
- IC50 (hIL-4I1; KM phenylalanine, 30 minutes): > 100 µM
- inhibition at 100 µM (hIL-4I1; at 100 uM): 31%
SMILES: N[C@H]1CC[C@H](N[C@@H]2C[C@H]2c2ccc(-c3cccc(CCC(=O)NCCOCCOCCOCCOCCOCCOCCOCCOCCOCCOCCOCCNC(=O)CCCC[C@@H]4SC[C@@H]5NC(=O)N[C@@H]54)c3)cc2)CC1 [Example 1.6, N-(39-(4′-((1S,2R)-2-(((trans)-4-aminocyclohexyl)amino)cyclopropyl)-[1,1′-biphenyl]-3-yl)-37-oxo-3,6,9,12,15,18,21,24,27,30,33-undecaoxa-36-azanonatriacontyl)-5-((3aS,4S,6aR)-2-oxohexahydro-1H-thieno[3,4-d]imidazol-4-yl)pentanamide dihydrochloride]

SMILES: N[C@H]1CC[C@H](N[C@@H]2C[C@H]2c2ccccc2)CC1 [ORY-1001, (trans)-N1-((1R,2S)-2-phenylcyclopropyl)cyclohexane-1,4-diamine]
- effect of pretreatment on pull-down of KDM1A by chemoprobe (KDM1A from THP-1 cells): completely prevented pull-down of KDM1A
- target engagement after multiple administrations versus single administration (KDM1A in rat PBMCs [3]; at the same dose level): higher than single administration
- percentage of KDM1A target engagement over time (KDM1A in rat PBMCs [3]; pooled rat PBMCs, p.o. 2.5 and 15 ug/kg/day, single dose or 5 consecutive days): clear time- and dose-response in KDM1A target engagement
- percentage of KDM1A target engagement after the last dose in absence of further treatment (KDM1A in rat PBMCs [3]; up to 72 h after the last administration): gradually decreases
- % of KDM1A target engagement (KDM1A in MV(4;11) cells): dose-responsive cellular target engagement
- effect of pre-treatment on pull-down of KDM1A by chemoprobes [4]: completely prevented pull-down of KDM1A
- KDM1A target engagement (in %) (KDM1A in rat PBMCs [5]): clear dose-response of KDM1A target engagement
- % of Target engagement (KDM1A in THP-1 cells): dose-responsive cellular target engagement
- KDM1A target engagement (KDM1A in LNCap cells): clear KDM1A target engagement
- free KDM1A signal (AlphaLISA) (human rKDM1A): blocked
- KDM1A target engagement (in %) (KDM1A in rat lung): clear dose-response of KDM1A target engagement
